The results in this text go back to patent US10450306B2, “Isoxazole analogs as FXR agonists and methods of use thereof” (Enanta Pharmaceuticals, Inc., priority 2016, dated 2019).

Read-outs that look alike come from different tables or passages of the source. Some results are limits rather than exact numbers.

The test addresses T1, human FXR (NR1H4) (Homo sapiens, UniProt Q96RI1).
T1 construct: host or cells: CHO (Chinese hamster ovary) reporter cells
T1 sequence (Q96RI1 1-486): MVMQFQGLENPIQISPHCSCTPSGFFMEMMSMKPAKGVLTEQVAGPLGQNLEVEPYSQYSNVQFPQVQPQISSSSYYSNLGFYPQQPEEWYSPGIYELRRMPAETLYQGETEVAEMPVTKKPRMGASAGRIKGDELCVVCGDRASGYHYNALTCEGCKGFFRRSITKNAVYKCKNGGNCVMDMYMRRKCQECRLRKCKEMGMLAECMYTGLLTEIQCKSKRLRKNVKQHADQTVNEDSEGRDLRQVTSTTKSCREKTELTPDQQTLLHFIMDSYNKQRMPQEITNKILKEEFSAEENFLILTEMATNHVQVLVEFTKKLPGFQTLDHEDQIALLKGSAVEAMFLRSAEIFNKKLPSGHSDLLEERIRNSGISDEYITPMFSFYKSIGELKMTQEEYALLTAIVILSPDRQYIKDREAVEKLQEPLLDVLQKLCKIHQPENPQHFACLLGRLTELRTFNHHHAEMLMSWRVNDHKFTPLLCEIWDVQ
Nature of the test: Human FXR (NR1H4) Assay: Gal4 promoter driven luciferase reporter transactivation in CHO cells (Indigo Bioscience kit IB00601). For Efficacy (%): efficacy normalized to CDCA set as 100%. It counts as cell-based. An excerpt: Human FXR (NR1H4) Assay Determination of a ligand mediated Gal4 promoter driven transactivation to quantify ligand binding mediated activation of FXR. FXR Reporter Assay kit purchased from Indigo Bioscience (Catalogue number: IB00601) to determine the potency and efficacy of compound developed by Enanta that can induce FXR activation. The principle application of this reporter assay system is to quantify functional activity of human FXR. The assay utilizes non-human mammalian cells, CHO (Chinese hamster ovary) cells engineered to express human NR1H4 protein (referred to as FXR). Reporter cells also incorporate the cDNA encoding beetle luciferase which catalyzes the substrates and yields photon emission. Luminescence intensity of the reaction is quantified using a plate-reading luminometer, Envision. Reporter Cells include the luciferase reporter gene functionally linked to an FXR responsive promoter. Thus, quantifying changes in luciferase expression in the treated reporter cells provides a sensitive surrogate measure of the changes in FXR activity. […] The assay is according to the manufacturer's instructions. In brief, the assay was performed in white, 96 well plates using final volume of 100 ul containing cells with different doses of compounds. Retrieve Reporter Cells from −80° C. storage. Perform a rapid thaw of the frozen cells by transferring a 10 ml volume of 37° C. cell recovery medium into the tube of frozen cells. Recap the tube of Reporter Cells and immediately place it in a 37° C. water bath for 5-10 minutes. Retrieve the tube of Reporter Cell Suspension from the water bath. Sanitize the outside surface of the tube with a 70% alcohol swab, and then transfer it into the cell culture hood. Dispense 90 μl of cell suspension into each well of the 96-well Assay Plate. Transfer the plate into 37° C. incubator, allowing the cells adherent to the bottom of the well. Dilute compounds in Dilution Plate (DP), and administrate to cells at Assay Plate (AP). DMSO content of the samples was kept at 0.2%. Cells were incubated for additional 22 hours before luciferase activities were measured. Thirty minutes before intending to quantify FXR activity, remove Detection Substrate and Detection Buffer from the refrigerator and place them in a low-light area so that they may equilibrate to room temperature. Remove the plate's lid and discard all media contents by ejecting it into an appropriate waste container. Gently tap the inverted plate onto a clean absorbent paper towel to remove residual droplets. Cells will remain tightly adhered to well bottoms. Add 100 ul of luciferase detection reagent to each well of the assay plate. Allow the assay plate to rest at room temperature for at least 5 minutes following the addition of LDR. Set the instrument (Envision) to perform a single 5 second “plate shake” prior to reading the first assay well. Read time may be 0.5 second (500 mSec) per well.
Background: Reporter assays use an easily measured gene product as a stand-in for the process of interest.

The mark [1] stands for this setting: Human FXR (NR1H4) reporter assay, potency ranges.

A word on the EC50: it is the concentration that produces a half-maximal response. `COC(=O)c1ccc2nc(N3C4CCC3CC(N(C)Cc3c(-c5c(Cl)cccc5Cl)noc3C3CC3)C4)sc2c1` (centres unmarked) [Example 179]: the Emax (CHO; read-out: Efficacy (%)) was 148%. Further, the EC50 under setting [1] lay in the range of 100 to 1000 nM.
`CCOC(=O)c1ccc2nc(NC3CCN(Cc4c(-c5c(Cl)cccc5Cl)noc4C4CC4)CC3)sc2c1` [Example 183]: where the note is “CHO; read-out: Efficacy (%)”, the Emax amounted to 119%. For the same compound, the EC50 under setting [1] is more than 1000 nM.
Taken in the same sequence, the figures for `CN(Cc1c(-c2c(Cl)cccc2Cl)noc1C1CC1)C1CCN(c2nc3ccc(C(=O)O)cc3s2)CC1` [Example 186] were 45% and more than 1000 nM.
With `COC(=O)c1cccc(N2CCN(Cc3c(-c4c(Cl)cccc4Cl)noc3C3CC3)CC2)c1` [Example 187], the Emax (CHO, read-out: Efficacy (%)) is 64%. The compound also came in with an EC50 under setting [1] of more than 1000 nM.
`O=C(O)c1cccc(N2CCN(Cc3c(-c4c(Cl)cccc4Cl)noc3C3CC3)CC2)c1` [Example 188]: for the setting “CHO; read-out: Efficacy (%)”, the Emax is 15%. Moreover, under setting [1], the EC50 was more than 1000 nM.
For `COC(=O)c1cc(OC(F)F)c2nc(N3C4CCC3CC(NCc3c(-c5c(Cl)cccc5Cl)noc3C3CC3)C4)sc2c1` (centres unmarked) [Example 189] the same measures were 73% and 1 to 100 nM.
As for `O=C(O)c1cc(OC(F)F)c2nc(N3[C@@H]4CC[C@H]3C[C@@H](NCc3c(-c5c(Cl)cccc5Cl)noc3C3CC3)C4)sc2c1` [Example 190, 2-((1R,3r,5S)-3-(((5-cyclopropyl-3-(2,6-dichlorophenyl)isoxazol-4-yl)methyl)amino)-8-azabicyclo[3.2.1]octan-8-yl)-4-(difluoromethoxy)benzo[d]thiazole-6-carboxylic acid], under “CHO; read-out: Efficacy (%)”, the Emax is 96%. In addition, the EC50 under setting [1] is less than 1 nM.
For `Cc1cc2nc(N3C4CCC3CC(NCc3c(-c5c(Cl)cccc5Cl)noc3C3CC3)C4)sc2cc1C(=O)O` (centres unmarked) [Example 194], the Emax (CHO; read-out: Efficacy (%)) was 81%. The compound further registered an EC50 under setting [1] of less than 1 nM.
Regarding `Cc1c(C(=O)O)ccc2nc(N3C4CCC3CC(NCc3c(-c5c(Cl)cccc5Cl)noc3C3CC3)C4)sc12` (centres unmarked) [Example 196], where the note is “CHO; read-out: Efficacy (%)”, the Emax came out at 83.5%. The compound further registered an EC50 under setting [1] of 1 to 100 nM.
For `COC(=O)c1ccc2nc(N3C4CCC3CC(NCc3c(-c5c(Cl)cccc5Cl)noc3C3CC3)C4)c(OC)nc2c1` (centres unmarked) [Example 197] the same measures were 115% and 100 to 1000 nM.
Taken in the same sequence, the figures for `COc1nc2cc(C(=O)O)ccc2nc1N1C2CCC1CC(NCc1c(-c3c(Cl)cccc3Cl)noc1C1CC1)C2` (centres unmarked) [Example 198] were 140% and 1 to 100 nM.
As for `COC(=O)c1ccc2nc(N3C4CCC3CC(NCc3c(-c5c(Cl)cccc5Cl)noc3C3CC3)C4)c(Cl)nc2c1` (centres unmarked) [Example 199], the Emax (CHO; read-out: Efficacy (%)) amounted to 58%. Moreover, the EC50 under setting [1] was 100 to 1000 nM.
As for `O=C(NCCS(=O)(=O)O)c1cc(F)c2nc(N3C4CCC3CC(NCc3c(-c5c(Cl)cccc5Cl)noc3C3CC3)C4)sc2c1` (centres unmarked) [Example 200-1], the Emax (CHO; read-out: Efficacy (%)) turned out to be 10%. Further, under setting [1], the EC50 lay within 1 to 100 nM.
Taken in the same sequence, the figures for `COC(=O)c1cc(OC(C)C)c2nc(N3CCC(NCc4c(-c5c(Cl)cccc5Cl)noc4C4CC4)CC3)sc2c1` [Example 200-3] were 35% and 100 to 1000 nM.
As for `CC(C)Oc1cc(C(=O)O)cc2sc(N3CCC(NCc4c(-c5c(Cl)cccc5Cl)noc4C4CC4)CC3)nc12` [Example 200-4], the Emax (CHO; read-out: Efficacy (%)) was determined as 106%. For the same compound, the EC50 under setting [1] lay in the range of 1 to 100 nM.
For `COC(=O)c1cc(F)c2nc(N3CCC(NCc4c(-c5c(Cl)cccc5Cl)noc4C4CC4)CC3)sc2c1` [Example 200-5] the same measures were 72% and 100 to 1000 nM.
Regarding `O=C(O)c1cc(F)c2nc(N3CCC(NCc4c(-c5c(Cl)cccc5Cl)noc4C4CC4)CC3)sc2c1` [Example 200-6], the Emax (CHO; read-out: Efficacy (%)) is 86.5%. For the same compound, the EC50 under setting [1] lay in the range of 1 to 100 nM.
Taken in the same sequence, the figures for `COC(=O)c1cc2sc(N3C4CCC3CC(NCc3c(-c5c(Cl)cccc5Cl)noc3C3CC3)C4)nc2cc1OC` (centres unmarked) [Example 200-7] were 74.5% and 1 to 100 nM.
For the compound `COc1cc2nc(N3C4CCC3CC(NCc3c(-c5c(Cl)cccc5Cl)noc3C3CC3)C4)sc2cc1C(=O)O` (centres unmarked) [Example 200-8], under “CHO; read-out: Efficacy (%)”, the Emax is 73.5%. The EC50 under setting [1] was less than 1 nM.
`CCOc1cc(C(=O)OC)cc2sc(N3C4CCC3CC(NCc3c(-c5c(Cl)cccc5Cl)noc3C3CC3)C4)nc12` (centres unmarked) [Example 200-9]: the Emax (CHO; read-out: Efficacy (%)) turned out to be 81%. For the same compound, under setting [1], the EC50 is 1 to 100 nM.
Taken in the same sequence, the figures for `CCOc1cc(C(=O)O)cc2sc(N3C4CCC3CC(NCc3c(-c5c(Cl)cccc5Cl)noc3C3CC3)C4)nc12` (centres unmarked) [Example 200-10] were 92.5% and less than 1 nM.
On to `COc1cc(C(=O)NCC(=O)O)cc2sc(N3C4CCC3CC(NCc3c(-c5c(Cl)cccc5Cl)noc3C3CC3)C4)nc12` (centres unmarked) [Example 200-11], for which the Emax (CHO; read-out: Efficacy (%)) came out at 75%. The EC50 under setting [1] is 1 to 100 nM.
`COc1cc(C(=O)NCCS(=O)(=O)O)cc2sc(N3C4CCC3CC(NCc3c(-c5c(Cl)cccc5Cl)noc3C3CC3)C4)nc12` (centres unmarked) [Example 200-12]: under “CHO; read-out: Efficacy (%)”, the Emax came out at 16.5%. Under setting [1], this compound had an EC50 of 1 to 100 nM.
For the compound `COC(=O)c1cc(OC(C)C)c2nc(N3C4CCC3CC(NCc3c(-c5c(Cl)cccc5Cl)noc3C3CC3)C4)sc2c1` (centres unmarked) [Example 200-13], under “CHO; read-out: Efficacy (%)”, the Emax is 96%. For the same compound, the EC50 under setting [1] was less than 1 nM.
Taken in the same sequence, the figures for `CC(C)Oc1cc(C(=O)O)cc2sc(N3C4CCC3CC(NCc3c(-c5c(Cl)cccc5Cl)noc3C3CC3)C4)nc12` (centres unmarked) [Example 200-14] were 93.5% and less than 1 nM.
Regarding `COC(=O)c1cc2sc(N3C4CCC3CC(NCc3c(-c5c(Cl)cccc5Cl)noc3C3CC3)C4)nc2cc1F` (centres unmarked) [Example 200-15], the Emax (CHO; read-out: Efficacy (%)) was 75.8%. The EC50 under setting [1] was 1 to 100 nM.
Consider `O=C(O)c1cc2sc(N3C4CCC3CC(NCc3c(-c5c(Cl)cccc5Cl)noc3C3CC3)C4)nc2cc1F` (centres unmarked) [Example 200-16], for which the Emax (CHO; read-out: Efficacy (%)) is 109%. Under setting [1], this compound had an EC50 of 1 to 100 nM.
As to `COC(=O)c1cnc2nc(N3C4CCC3CC(NCc3c(-c5c(Cl)cccc5Cl)noc3C3CC3)C4)sc2n1` (centres unmarked) [Example 200-17], under “CHO; read-out: Efficacy (%)”, the Emax stood at 51.5%. In addition, under setting [1], the EC50 is 1 to 100 nM.
Take `O=C(O)c1cnc2nc(N3C4CCC3CC(NCc3c(-c5c(Cl)cccc5Cl)noc3C3CC3)C4)sc2n1` (centres unmarked) [Example 200-18]: the Emax (CHO; read-out: Efficacy (%)) amounted to 91.3%. The EC50 under setting [1] lay within 1 to 100 nM.
For `COC(=O)c1cc2sc(N3C4CCC3CC(NCc3c(-c5c(Cl)cccc5Cl)noc3C3CC3)C4)nc2cc1Br` (centres unmarked) [Example 200-19] the same measures were 50.5% and 1 to 100 nM.
For the compound `COC(=O)c1ccc2nc(N3C4CCC3CC(NCc3c(-c5c(Cl)cccc5Cl)noc3C3CC3)C4)sc2c1Br` (centres unmarked) [Example 200-21], the Emax (CHO; read-out: Efficacy (%)) is 58%. The same compound displayed an EC50 under setting [1] of 1 to 100 nM.
For the compound `COC(=O)c1cc2sc(N3C4CCC3CC(NCc3c(-c5c(Cl)cccc5Cl)noc3C3CC3)C4)nc2cc1-c1ccccc1` (centres unmarked) [Example 200-23], the Emax (CHO; read-out: Efficacy (%)) amounted to 76.5%. Under setting [1], this compound gave an EC50 of 1 to 100 nM.
`O=C(O)c1cc2sc(N3C4CCC3CC(NCc3c(-c5c(Cl)cccc5Cl)noc3C3CC3)C4)nc2cc1-c1ccccc1` (centres unmarked) [Example 200-24]: the Emax (CHO; read-out: Efficacy (%)) came to 96.2%. Further, the EC50 under setting [1] was 1 to 100 nM.
As to `COC(=O)c1ccc2nc(N3C4CCC3CC(NCc3c(-c5c(Cl)cccc5Cl)noc3C3CC3)C4)sc2c1-c1ccccc1` (centres unmarked) [Example 200-25], where the note is “CHO; read-out: Efficacy (%)”, the Emax was 58.5%. Further, under setting [1], the EC50 was in the range of 1 to 100 nM.
